{"source": "ChEMBL document CHEMBL4419173", "about": "“Small-molecule inhibitors targeting g-protein-coupled rho guanine nucleotide exchange factors” (2014)", "key": {"[1]": {"biological_target": "Rho GEF 12/Transforming protein RhoA (Homo sapiens) (UniProt P61586+Q9NZN5)", "assay": "Inhibition of His6-tagged human LARG PH-DH domain expressed in mouse NIH/3T3 cells assessed as reduction in human full length GST-tagged RhoA (1 to 193 residues) interaction with LARG RhoGEF at 100 uM incubated for 1 hr by Western blot analysis relative to Y16", "assay_type": "cell-based"}, "[2]": {"biological_target": "T1, Rho guanine nucleotide exchange factor 12 (Homo sapiens, UniProt Q9NZN5)", "T1 sequence (Q9NZN5 whole entry, the tested form may be a part)": "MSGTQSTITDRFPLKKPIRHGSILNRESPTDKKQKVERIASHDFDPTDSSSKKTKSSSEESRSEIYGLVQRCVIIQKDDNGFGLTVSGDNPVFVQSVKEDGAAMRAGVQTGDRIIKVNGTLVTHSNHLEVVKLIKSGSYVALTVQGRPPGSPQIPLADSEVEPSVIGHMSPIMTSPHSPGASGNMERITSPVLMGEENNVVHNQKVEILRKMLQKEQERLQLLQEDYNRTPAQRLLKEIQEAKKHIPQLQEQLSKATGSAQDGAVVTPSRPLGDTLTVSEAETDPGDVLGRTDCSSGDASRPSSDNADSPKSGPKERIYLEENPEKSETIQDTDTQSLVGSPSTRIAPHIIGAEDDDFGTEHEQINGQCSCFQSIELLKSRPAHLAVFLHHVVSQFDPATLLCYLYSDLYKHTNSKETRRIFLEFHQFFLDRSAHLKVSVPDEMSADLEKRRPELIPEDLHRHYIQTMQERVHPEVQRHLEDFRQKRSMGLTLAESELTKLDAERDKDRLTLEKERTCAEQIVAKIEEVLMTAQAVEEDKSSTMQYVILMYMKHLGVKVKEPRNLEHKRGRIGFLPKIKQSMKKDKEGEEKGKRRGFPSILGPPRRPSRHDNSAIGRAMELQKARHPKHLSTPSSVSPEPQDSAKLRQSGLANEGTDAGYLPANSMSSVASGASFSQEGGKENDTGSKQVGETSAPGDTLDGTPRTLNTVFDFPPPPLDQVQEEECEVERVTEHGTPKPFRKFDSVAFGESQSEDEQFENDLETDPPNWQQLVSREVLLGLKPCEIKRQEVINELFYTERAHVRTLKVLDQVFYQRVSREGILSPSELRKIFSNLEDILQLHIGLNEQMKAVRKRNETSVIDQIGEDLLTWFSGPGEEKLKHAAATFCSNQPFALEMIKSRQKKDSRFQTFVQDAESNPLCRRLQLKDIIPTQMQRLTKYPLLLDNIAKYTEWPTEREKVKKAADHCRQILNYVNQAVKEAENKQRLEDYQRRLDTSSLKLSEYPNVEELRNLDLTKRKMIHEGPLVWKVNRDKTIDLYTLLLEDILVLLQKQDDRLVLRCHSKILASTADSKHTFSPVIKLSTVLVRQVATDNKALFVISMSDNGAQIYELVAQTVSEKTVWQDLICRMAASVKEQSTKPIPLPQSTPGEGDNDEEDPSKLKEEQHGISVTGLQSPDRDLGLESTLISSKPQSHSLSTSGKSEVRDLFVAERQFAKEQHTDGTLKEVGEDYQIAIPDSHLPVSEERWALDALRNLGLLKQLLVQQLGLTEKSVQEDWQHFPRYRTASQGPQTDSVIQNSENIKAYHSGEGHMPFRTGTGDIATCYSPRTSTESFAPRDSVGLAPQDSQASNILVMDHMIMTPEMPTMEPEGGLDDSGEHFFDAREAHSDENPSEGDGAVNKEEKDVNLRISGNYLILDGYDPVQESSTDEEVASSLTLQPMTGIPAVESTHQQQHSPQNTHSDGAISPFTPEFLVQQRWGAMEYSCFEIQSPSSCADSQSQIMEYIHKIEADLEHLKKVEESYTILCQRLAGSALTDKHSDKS", "assay": "Inhibition of human LARG (765 to 1138 residues) RhoGEF-catalyzed guanine nucleotide-exchange reaction of human full length RhoA (1 to 193 residues) by measuring inhibition of FL-GDP dissociation from RhoA by BODIPY-fluorescein(FL)-GDP nucleotide based assay"}, "[3]": {"biological_target": "T1, Rho guanine nucleotide exchange factor 12", "assay": "Inhibition of human LARG (765 to 1138 residues) RhoGEF-catalyzed guanine nucleotide-exchange reaction of human full length RhoA (1 to 193 residues) by measuring inhibition of TR-GTP association to RhoA by BODIPY-Texas Red(TR)-GTP nucleotide based assay"}, "[4]": {"test_system": "MCF7", "assay": "Inhibition of RhoGEF in human MCF7 cells derived mammospheres assessed as inhibition of 10% calf serum-induced RhoA-GTP formation by measuring relative RhoA-GTP level at 30 uM incubated for 24 hrs by densitometry (reference value: 1)", "assay_type": "cell-based"}, "[5]": {"species": "Mus musculus", "assay": "Inhibition of RhoGEF in mouse NIH/3T3 cells assessed as inhibition of 10% calf serum-induced Cdc42-GTP formation by measuring relative Cdc42-GTP level at 50 uM incubated for 24 hrs by densitometry (reference value: 1)", "assay_type": "cell-based"}, "[6]": {"species": "Mus musculus", "assay": "Inhibition of RhoGEF in mouse NIH/3T3 cells assessed as inhibition of 10% calf serum-induced RhoA-GTP formation by measuring reduction in RhoA-GTP level at 30 uM incubated for 24 hrs by densitometry relative to control", "assay_type": "cell-based"}, "[7]": {"species": "Mus musculus", "assay": "Inhibition of RhoGEF in mouse NIH/3T3 cells assessed as inhibition of 10% calf serum-induced RhoA-GTP formation by measuring relative RhoA-GTP level at 50 uM incubated for 24 hrs by densitometry (reference value: 1)", "assay_type": "cell-based"}, "[8]": {"test_system": "MCF7", "assay": "Inhibition of RhoGEF in human MCF7 cells derived mammospheres assessed as inhibition of 10% calf serum-induced RhoA-GTP formation by measuring relative RhoA-GTP level incubated for 24 hrs by densitometry (reference value: 1)", "assay_type": "cell-based"}, "[9]": {"test_system": "MCF7", "assay": "Growth inhibition of human MCF7 cells at 5 to 50 uM", "assay_type": "functional, cell-based"}, "[10]": {"test_system": "MCF7", "assay": "Inhibition of RhoGEF in human MCF7 cells derived mammospheres assessed as inhibition of RhoA-mediated phospho-MLC formation incubated for 24 hrs by densitometry", "assay_type": "cell-based"}, "[11]": {"test_system": "MCF7", "assay": "Inhibition of RhoGEF in human MCF7 cells derived mammospheres assessed as inhibition of 10% calf serum-induced RhoA-GTP formation by measuring relative RhoA-GTP level at 5 uM incubated for 24 hrs by densitometry (reference value: 1)", "assay_type": "cell-based"}, "[12]": {"species": "Mus musculus", "assay": "Inhibition of RhoGEF in mouse NIH/3T3 cells assessed as inhibition of 10% calf serum-induced Rac1-GTP formation by measuring relative Rac1-GTP level at 50 uM incubated for 24 hrs by densitometry (reference value: 1)", "assay_type": "cell-based"}, "[13]": {"test_system": "MCF7", "assay": "Inhibition of RhoGEF in human MCF7 cells derived mammospheres assessed as inhibition of 10% calf serum-induced RhoA-GTP formation by measuring relative RhoA-GTP level at 10 uM incubated for 24 hrs by densitometry (reference value: 1)", "assay_type": "cell-based"}, "[14]": {"test_system": "MCF7", "assay": "Inhibition of cell invasion of human MCF7 cells at 10 to 50 uM by Matrigel-coated transwell based assay", "assay_type": "functional"}, "[15]": {"biological_target": "T1, Rho guanine nucleotide exchange factor 12", "assay": "Inhibition of human LARG (765 to 1138 residues) RhoGEF binding to human full length RhoA (1 to 193 residues)"}, "[16]": {"species": "Mus musculus", "assay": "Inhibition of RhoGEF in mouse NIH/3T3 cells assessed as reduction in 10% calf serum-induced rhoA-mediated actin stress fiber formation at 10 uM by rhodamine-phalloidin staining based assay", "assay_type": "cell-based"}, "[17]": {"biological_target": "T2, RhoGEF 1/Transforming protein RhoA (Homo sapiens) (UniProt P61586+Q92888)", "assay": "Binding affinity to human LARG (765 to 1138 residues) DH-PH module expressed in mouse NIH/3T3 cells assessed as reduction in LARG binding to human full length RhoA (1 to 193 residues) by measuring relative LARG binding level at 50 uM pull-down assay (reference value: 1 No unit)", "assay_type": "cell-based"}, "[18]": {"biological_target": "T2, RhoGEF 1/Transforming protein RhoA (Homo sapiens)", "assay": "Binding affinity to human LARG (765 to 1138 residues) DH-PH module expressed in mouse NIH/3T3 cells assessed as reduction in LARG binding to human full length RhoA (1 to 193 residues) by measuring relative LARG binding level at 10 uM pull-down assay (reference value: 1 No unit)", "assay_type": "cell-based"}, "[19]": {"test_system": "MCF7", "assay": "Inhibition of RhoGEF in human MCF7 cells derived mammospheres assessed as inhibition of RhoA-mediated phospho-MLC formation at 10 uM incubated for 24 hrs by densitometry", "assay_type": "cell-based"}, "[20]": {"test_system": "MCF7", "assay": "Inhibition of RhoGEF in human MCF7 cells derived mammospheres assessed as inhibition of 10% calf serum-induced RhoA-GTP formation at 10 uM incubated for 24 hrs by densitometry relative to control", "assay_type": "cell-based"}, "[21]": {"test_system": "MCF7", "assay": "Inhibition of cell migration of human MCF7 cells at 10 to 50 uM", "assay_type": "functional, cell-based"}, "[22]": {"biological_target": "T2, RhoGEF 1/Transforming protein RhoA (Homo sapiens)", "assay": "Binding affinity to human LARG (765 to 1138 residues) DH-PH module expressed in mouse NIH/3T3 cells assessed as reduction in LARG binding to human full length RhoA (1 to 193 residues) by measuring relative LARG binding level at 5 uM pull-down assay (reference value: 1 No unit)", "assay_type": "cell-based"}, "[23]": {"biological_target": "T2, RhoGEF 1/Transforming protein RhoA (Homo sapiens)", "assay": "Binding affinity to human LARG (765 to 1138 residues) DH-PH module expressed in mouse NIH/3T3 cells assessed as reduction in LARG binding to human full length RhoA (1 to 193 residues) by measuring relative LARG binding level at 30 uM pull-down assay (reference value: 1 No unit)", "assay_type": "cell-based"}, "[24]": {"species": "Mus musculus", "assay": "Inhibition of RhoGEF in mouse NIH/3T3 cells assessed as inhibition of 10% calf serum-induced RhoA-GTP formation by measuring relative RhoA-GTP level at 10 uM incubated for 24 hrs by densitometry (reference value: 1)", "assay_type": "cell-based"}, "[25]": {"species": "Mus musculus", "assay": "Inhibition of RhoGEF in mouse NIH/3T3 cells assessed as inhibition of 10% calf serum-induced RhoA-GTP formation by measuring relative RhoA-GTP level at 30 uM incubated for 24 hrs by densitometry (reference value: 1)", "assay_type": "cell-based"}}, "note": "pIC50: −log10 of the molar value. Active and inactive are the calls of the source. The calls are words filed in the database; no cut-off is given here."}
{"smiles": "COc1cc(/C=C2/C(=O)NN(c3ccccc3)C2=O)cc(Br)c1OCCOc1ccc(C)cc1", "values": [{"measurement": "inhibition", "setting": "[1]", "result": 13.8, "unit": "%"}]}
{"smiles": "COc1cc(/C=C2/C(=O)NN(c3ccccc3)C2=O)ccc1O", "values": [{"measurement": "inhibition", "setting": "[1]", "result": 13, "unit": "%"}]}
{"smiles": "O=C1NN(c2ccccc2)C(=O)/C1=C\\C1=NCc2ccccc21", "values": [{"measurement": "inhibition", "setting": "[1]", "result": 6.57, "unit": "%"}]}
{"smiles": "O=C(O)C1Nc2c(Cl)cc(Cl)cc2C2C=CCC12", "note": "(centres undefined)", "values": [{"measurement": "inhibition", "setting": "[2]", "result": "Dose-dependent effect"}, {"measurement": "inhibition", "setting": "[3]", "result": "Dose-dependent effect"}]}
{"smiles": "O=C1/C(=C\\c2ccccc2OCc2ccccc2)CNN1c1ccc(Br)cc1", "values": [{"measurement": "inhibition", "setting": "[1]", "result": 7.34, "unit": "%"}]}
{"smiles": "N[C@H](Cc1c[nH]c2ccccc12)C(=O)N/N=C/c1ccc2nccnc2c1", "values": [{"measurement": "fold change (FC)", "setting": "[4]", "result": 0.32}, {"measurement": "fold change (FC)", "setting": "[5]", "result": 0.96}, {"measurement": "inhibition", "setting": "[6]", "result": 80, "unit": "%"}, {"measurement": "fold change (FC)", "setting": "[7]", "result": 0.19}, {"measurement": "inhibition", "setting": "[8]", "result": "Dose-dependent effect"}, {"measurement": "growth inhibition (GI)", "setting": "[9]", "result": "Active"}, {"measurement": "inhibition", "setting": "[10]", "result": "Dose-dependent effect"}, {"measurement": "fold change (FC)", "setting": "[11]", "result": 0.98}, {"measurement": "fold change (FC)", "setting": "[12]", "result": 0.89}, {"measurement": "fold change (FC)", "setting": "[13]", "result": 0.65}, {"measurement": "inhibition", "setting": "[14]", "result": "Active"}, {"measurement": "pIC50", "setting": "[15]", "result": 5.00}, {"measurement": "inhibition", "setting": "[16]", "result": "Active"}, {"measurement": "fold change (FC)", "setting": "[17]", "result": 0.15}, {"measurement": "fold change (FC)", "setting": "[18]", "result": 0.63}, {"measurement": "inhibition", "setting": "[19]", "result": 50, "unit": "%"}, {"measurement": "inhibition", "setting": "[20]", "result": 50, "unit": "%"}, {"measurement": "inhibition", "setting": "[21]", "result": "Active"}, {"measurement": "fold change (FC)", "setting": "[22]", "result": 0.92}, {"measurement": "fold change (FC)", "setting": "[23]", "result": 0.45}, {"measurement": "fold change (FC)", "setting": "[24]", "result": 0.7}, {"measurement": "fold change (FC)", "setting": "[25]", "result": 0.38}]}
{"smiles": "O=C1NN(c2ccccc2)C(=O)/C1=C/c1ccc(OCc2ccccc2)cc1", "values": [{"measurement": "inhibition", "setting": "[1]", "result": 27.1, "unit": "%"}]}
